Results published in PubChem BioAssay AID1918936 (Molecular Pharmacology Branch, DTP, NCI, 2023).

System: 349418-098-R-PDC complex spheroid viability
Test: Anticancer human tumor 349418-098-R-PDC patient-derived lung adenocarcinoma cell line growth inhibition
Conditions: for IC50: curve of first compound; for viability, T/C: stronger effect = lower value
Outline: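 Drug combinations with the LSD1 inhibitor iadademstat tested on tumor cells co-cultured as spheroids with endothelial cells and mesenchymal stem cells. Concentrations descended in half-log increments from clinical Cmax or 10 microM.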
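Further: spheroids exposed to agents for seven days before readout.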
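Wherever viability, T/C is given: 100% = DMSO vehicle control wells.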

Cn1ncnc1C1c2n[nH]c(=O)c3cc(F)cc(c23)NC1c1ccc(F)cc1 (stereo not given) + NC1CC1c1ccc(-c2cccc(O)c2)cc1
IC50 (second compound 0.1 µM): > 100 nM
IC50 (second compound 0.316 µM): > 100 nM
IC50 (second compound 1 µM): > 100 nM
IC50 (second compound 3.16 µM): > 100 nM
IC50 (second compound 10 µM): > 100 nM
viability, T/C (second compound 0.1 µM, first compound 0.000316 µM): 115%
viability, T/C (second compound 0.1 µM, first compound 0.001 µM): 105%
viability, T/C (second compound 0.1 µM, first compound 0.00316 µM): 112%
viability, T/C (second compound 0.1 µM, first compound 0.01 µM): 105%
viability, T/C (second compound 0.1 µM, first compound 0.0316 µM): 101%
viability, T/C (second compound 0.1 µM, first compound 0.1 µM): 102%
viability, T/C (second compound 0.316 µM, first compound 0.000316 µM): 112%
viability, T/C (second compound 0.316 µM, first compound 0.001 µM): 110%
viability, T/C (second compound 0.316 µM, first compound 0.00316 µM): 111%
viability, T/C (second compound 0.316 µM, first compound 0.01 µM): 104%
viability, T/C (second compound 0.316 µM, first compound 0.0316 µM): 106%
viability, T/C (second compound 0.316 µM, first compound 0.1 µM): 101%
viability, T/C (second compound 1 µM, first compound 0.000316 µM): 119%
viability, T/C (second compound 1 µM, first compound 0.001 µM): 112%
viability, T/C (second compound 1 µM, first compound 0.00316 µM): 106%
viability, T/C (second compound 1 µM, first compound 0.01 µM): 107%
viability, T/C (second compound 1 µM, first compound 0.0316 µM): 108%
viability, T/C (second compound 1 µM, first compound 0.1 µM): 101%
viability, T/C (second compound 3.16 µM, first compound 0.000316 µM): 114%
viability, T/C (second compound 3.16 µM, first compound 0.001 µM): 117%
viability, T/C (second compound 3.16 µM, first compound 0.00316 µM): 105%
viability, T/C (second compound 3.16 µM, first compound 0.01 µM): 115%
viability, T/C (second compound 3.16 µM, first compound 0.0316 µM): 103%
viability, T/C (second compound 3.16 µM, first compound 0.1 µM): 103%
viability, T/C (second compound 10 µM, first compound 0.000316 µM): 99.1%
viability, T/C (second compound 10 µM, first compound 0.001 µM): 100%
viability, T/C (second compound 10 µM, first compound 0.00316 µM): 98.9%
viability, T/C (second compound 10 µM, first compound 0.01 µM): 96.9%
viability, T/C (second compound 10 µM, first compound 0.0316 µM): 90.9%
viability, T/C (second compound 10 µM, first compound 0.1 µM): 86.8%
